Publication PMC12406196, “Anticoronavirus Activity of Uridine Glycoconjugates Containing a 1,2,3-Triazole Moiety” (Journal of Medicinal Chemistry, 2025)

System: SARS-CoV-2 S protein (S2 domain)
Format: cell-based
Settings: Western blot with S2-specific antibodies

Row | SMILES | S2 domain levels in the medium of SC-VLP-producing cells
1 | CC(=O)OC[C@H]1O[C@@H](OCc2cn(C[C@H]3O[C@@H](n4ccc(=O)[nH]c4=O)[C@H](O[Si](C)(C)C(C)(C)C)[C@@H]3O[Si](C)(C)C(C)(C)C)nn2)[C@H](OC(C)=O)[C@@H](OC(C)=O)[C@H]1OC(C)=O [Compound 15, 2′,3′-di-O-tert-Butyldimethylsilyl-5′-deoxy-5′-[4-(2″,3″,4″,6″-tetra-O-acetyl-β-D-galactopyranosyloxymethyl)-1,2-3-triazol-1-yl]-uridine] | minor alterations
2 | CC(=O)OC[C@H]1O[C@@H](SCc2cn(C[C@H]3O[C@@H](n4ccc(=O)[nH]c4=O)[C@H](O[Si](C)(C)C(C)(C)C)[C@@H]3O[Si](C)(C)C(C)(C)C)nn2)[C@H](OC(C)=O)[C@@H](OC(C)=O)[C@@H]1OC(C)=O [Compound 20, 2′,3′-di-O-tert-Butyldimethylsilyl-5′-deoxy-5′-[4-(2″,3″,4″,6″-tetra-O-acetyl-β-D-glucopyranosylthiomethyl)-1,2-3-triazol-1-yl]-uridine] | minor alterations
3 | CC(=O)OC[C@H]1O[C@@H](SCc2cn(C[C@H]3O[C@@H](n4ccc(=O)[nH]c4=O)[C@H](O[Si](C)(C)C(C)(C)C)[C@@H]3O[Si](C)(C)C(C)(C)C)nn2)[C@H](OC(C)=O)[C@@H](OC(C)=O)[C@H]1OC(C)=O [Compound 21, 2′,3′-di-O-tert-Butyldimethylsilyl-5′-deoxy-5′-[4-(2″,3″,4″,6″-tetra-O-acetyl-β-D-galactopyranosylthiomethyl)-1,2-3-triazol-1-yl]-uridine] | more pronounced reduction
4 | CC(=O)OC[C@H]1O[C@@H](SCn2cc(COC[C@H]3O[C@@H](n4ccc(=O)[nH]c4=O)[C@H](O[Si](C)(C)C(C)(C)C)[C@@H]3O[Si](C)(C)C(C)(C)C)nn2)[C@H](OC(C)=O)[C@@H](OC(C)=O)[C@@H]1OC(C)=O [Compound 24, 2′,3′-di-O-tert-Butyldimethylsilyl-5′-O-[(1-(2″,3″,4″,6″-tetra-O-acetyl-β-D-glucopyranosylthiomethyl)-1,2-3-triazol-4-yl)-methyl]-uridine] | minor alterations
